Reference: US20130252831A1, “METHOD OF DIAGNOSING EARLY STAGE NON-SMALL CELL LUNG CANCER” (H. Lee Moffitt Cancer Center and Research Institute, Inc., priority 2010, published 2013)

Tests used:
[1] = test system: EGFR-mutant NSCLC; settings: randomized phase III trial (Zhou et al.); cited from earlier work
[2] = test system: A489 cell line; assay: MR score in cisplatin treated versus control cells, Almeida et al. dataset GSE6410; assay type: cell-based; settings: p=0.08
Source text: The inventors have identified 10 published datasets describing drug sensitivity in cell lines. Three of them have been analyzed to show the potential of the MR signature for its association with drug sensitivity. […] A high MR score tends to be associated with low GI50 (sensitivity) in both drugs. In addition, in the Almeida et al.'s study (GSE6410), the MR score was lower in the cisplatin treated group than in the control group in A489 cell line (FIG. 20c).
Thousands and thousands of gene expression array data have been deposited at various public repositories, such as NCBI's Gene Expression Omnibus and EBI's ArrayExpress with more than 600,000 array data for each site (updated in October 2011; 100,000 more since January 2011). The broad and unrestricted microarray data have made in-silico validation of hypotheses accessible and feasible. For this invention, more than 1,000 microarray datasets have potential for performing in-silico validation (e.g., data related to the keyword “non-small cell lung cancer cell line” at GEO). First, appropriate datasets are identified for validation by reading the […] (at least abstract and experimental design). At this moment, more than 10 potential useful datasets have been identified. […] Molecular cancer therapeutics, 2008, 7(7); p. […]

SMILES	efficacy compared with platinum-based chemotherapy [1]	MR score in treated group versus control group [2]
C#Cc1cccc(Nc2ncnc3cc(OCCOC)c(OCCOC)cc23)c1 [erlotinib]	superior to platinum-based chemotherapy	–
N.N.[Cl][Pt][Cl] [Cisplatin]	–	lower
